Test results from US20120022143A1, “RNA Interference Mediated Inhibition of the Thymic Stromal Lymphopoietin (TSLP) Gene Expression Using Short Interfering Nucliec Acid (siNA)” (Merck Sharp & Dohme Corp, priority 2009, published 2012).
[invAb] = inverted abasic unit; d = 2'-deoxy (DNA); m = 2'-O-methyl; r = 2'-OH (RNA); f = 2'-fluoro

Tests used:
[1] = tested on: TSLP mRNA; experiment: Initial screening: TSLP mRNA knock-down by RT-PCR (Taqman) after RNAiMax transfection of NHLF cells; format: cell-based; conditions: 10 nM siNA, human NHLF cells, 24 hrs post-transfection, relative to non-targeting control, normalized to GAPDH; mean ± s.d. from 2 experiments
[2] = tested on: mTSLP mRNA; experiment: Initial screening: mouse TSLP mRNA knock-down by RT-PCR (Taqman) after RNAiMax transfection of NIH 3T3 cells; format: cell-based; conditions: 10 nM siNA, 24 hrs post-transfection, mean ± s.d., summary from 2 screens

Row | Substance | % KD TSLP [1] | % KD mTSLP NIH3T3 [2]
1 | 25442-DC: siNA duplex: sense B GGcAAGAGAuuGcAucAuA TTB (SEQ ID NO: 67), antisense UAUGAuGcAAucucuuGccUU (SEQ ID NO: 68) (sense GGCAAGAGAUUGCAUCAUATT; antisense UAUGAUGCAAUCUCUUGCCUU; sense: DNA at AGT, 2'-fluoro at CU, [invAb] at 5' end, 3' end, backbone not given here; antisense: sugars from the 5' end rrrmmfmfmmffffffmffmm, backbone not given here) | 12 ± 27^ % | −70.9 ± 6.4%
2 | 25448-DC: siNA duplex: sense B uGuGAAcAcuuuuGAAAAu TTB (SEQ ID NO: 79), antisense AUUuucAAAAGuGuucAcAUU (SEQ ID NO: 80) (sense UGUGAACACUUUUGAAAAUTT; antisense AUUUUCAAAAGUGUUCACAUU; sense: DNA at AGT, 2'-fluoro at CU, [invAb] at 5' end, 3' end, backbone not given here; antisense: sugars from the 5' end rrrfffmmmmmfmfffmfmmm, backbone not given here) | 80 ± 7% | 45.1 ± 6.3%
3 | 25463-DC: siNA duplex: sense B cGAGuAuuAuAcucucAAu TTB (SEQ ID NO: 109), antisense AUUGAGAGuAuAAuAcucGUU (SEQ ID NO: 110) (sense CGAGUAUUAUACUCUCAAUTT; antisense AUUGAGAGUAUAAUACUCGUU; sense: DNA at AGT, 2'-fluoro at CU, [invAb] at 5' end, 3' end, backbone not given here; antisense: sugars from the 5' end rrrmmmmmfmfmmfmfffmmm, backbone not given here) | 19 ± 33.3% | 41.5 ± 1.4%
4 | 25467-DC: siNA duplex: sense B cAAGAGccuuGcAcAucuA TTB (SEQ ID NO: 117), antisense UAGAuGuGcAAGGcucuuGUU (SEQ ID NO: 118) (sense CAAGAGCCUUGCACAUCUATT; antisense UAGAUGUGCAAGGCUCUUGUU; sense: DNA at AGT, 2'-fluoro at CU, [invAb] at 5' end, 3' end, backbone not given here; antisense: sugars from the 5' end rrrmfmfmfmmmmfffffmmm, backbone not given here) | −13 ± 31.7% | −31 ± 7.4%
5 | 25431-DC: siNA duplex: sense B GcuucAGGAuGcAuuGcAA TTB (SEQ ID NO: 45), antisense UUGcAAuGcAuccuGAAGcUU (SEQ ID NO: 46) (sense GCUUCAGGAUGCAUUGCAATT; antisense UUGCAAUGCAUCCUGAAGCUU; sense: DNA at AGT, 2'-fluoro at CU, [invAb] at 5' end, 3' end, backbone not given here; antisense: sugars from the 5' end rrrfmmfmfmffffmmmmfmm, backbone not given here) | −11 ± 39.5% | −10.8 ± 14.2%
6 | 25452-DC: siNA duplex: sense B uuGuGAAcAcuuuuGAAAA TTB (SEQ ID NO: 87), antisense UUUucAAAAGuGuucAcAAUU (SEQ ID NO: 88) (sense UUGUGAACACUUUUGAAAATT; antisense UUUUCAAAAGUGUUCACAAUU; sense: DNA at AGT, 2'-fluoro at CU, [invAb] at 5' end, 3' end, backbone not given here; antisense: sugars from the 5' end rrrffmmmmmfmfffmfmmmm, backbone not given here) | 86 ± 3% | 36.4 ± 7.9%
7 | 25440-DC: siNA duplex: sense B cucuGGuuuuuuAAAuGuA TTB (SEQ ID NO: 63), antisense UACAuuuAAAAAAccAGAGUU (SEQ ID NO: 64) (sense CUCUGGUUUUUUAAAUGUATT; antisense UACAUUUAAAAAACCAGAGUU; sense: DNA at AGT, 2'-fluoro at CU, [invAb] at 5' end, 3' end, backbone not given here; antisense: sugars from the 5' end rrrmfffmmmmmmffmmmmmm, backbone not given here) | 16 ± 20.1% | 1 ± 33.1%
8 | 25462-DC: siNA duplex: sense B GGGcuAAGuucGAGcAAAu TTB (SEQ ID NO: 107), antisense AUUuGcucGAAcuuAGcccUU (SEQ ID NO: 108) (sense GGGCUAAGUUCGAGCAAAUTT; antisense AUUUGCUCGAACUUAGCCCUU; sense: DNA at AGT, 2'-fluoro at CU, [invAb] at 5' end, 3' end, backbone not given here; antisense: sugars from the 5' end rrrfmfffmmmfffmmfffmm, backbone not given here) | 23 ± 16.4% | −9.5 ± 28.7%
9 | 25469-DC: siNA duplex: sense B AAAuGGGAAAuGAGcAAuA TTB (SEQ ID NO: 121), antisense UAUuGcucAuuucccAuuuUU (SEQ ID NO: 122) (sense AAAUGGGAAAUGAGCAAUATT; antisense UAUUGCUCAUUUCCCAUUUUU; sense: DNA at AGT, 2'-fluoro at CU, [invAb] at 5' end, 3' end, backbone not given here; antisense: sugars from the 5' end rrrfmfffmffffffmfffmm, backbone not given here) | −1 ± 18.8% | −17.2 ± 17.9%
10 | 25447-DC: siNA duplex: sense B uuuGuGAAcAcuuuuGAAA TTB (SEQ ID NO: 77), antisense UUUcAAAAGuGuucAcAAAUU (SEQ ID NO: 78) (sense UUUGUGAACACUUUUGAAATT; antisense UUUCAAAAGUGUUCACAAAUU; sense: DNA at AGT, 2'-fluoro at CU, [invAb] at 5' end, 3' end, backbone not given here; antisense: sugars from the 5' end rrrfmmmmmfmfffmfmmmmm, backbone not given here) | 84 ± 4.6% | 18.5 ± 3.8%
11 | 25443-DC: siNA duplex: sense B GAGGAAGcuuAcAuuAcAu TTB (SEQ ID NO: 69), antisense AUGuAAuGuAAGcuuccucUU (SEQ ID NO: 70) (sense GAGGAAGCUUACAUUACAUTT; antisense AUGUAAUGUAAGCUUCCUCUU; sense: DNA at AGT, 2'-fluoro at CU, [invAb] at 5' end, 3' end, backbone not given here; antisense: sugars from the 5' end rrrfmmfmfmmmfffffffmm, backbone not given here) | 43 ± 12.1% | 16.7 ± 11.7%
12 | 25470-DC: siNA duplex: sense B AAAGuAGAAAAAAAAAuuA TTB (SEQ ID NO: 123), antisense UAAuuuuuuuuucuAcuuuUU (SEQ ID NO: 124) (sense AAAGUAGAAAAAAAAAUUATT; antisense UAAUUUUUUUUUCUACUUUUU; sense: sugars from the 5' end d4 f1 d11 f2 d3, [invAb] at 5' end, 3' end, backbone not given here; antisense: sugars from the 5' end r3 f11 m1 f4 m2, backbone not given here) | 28 ± 22.6% | 19.3 ± 10.3%
